What was measured:
Es-2 sulfatase [1] = assay: Effect of enzyme inhibitors on sulfatase activity (protocol as for ions); type: biochemical, Streptomyces sp. T109-3
Description: (a) Optimum pH. The enzyme solution (0.6 u in 50 µl of 50 mM Tris-HCl, pH 7.5) was mixed with 100 µl each of the following buffers: 500 mM sodium acetate (pH 4.0-5.5), 500 mM Tris-maleate (pH 5.5-7.7), 500 mM Tris-HCl (pH 7.5-9.0), and 500 mM glycine-NaOH (pH 9.0-10.0). The substrate, p-nitrophenylsulfate, was similarly dissolved in each of the above buffers (1 mg/ml). A sample (150 µl) from the enzyme solution is mixed with the substrate (50 µl) in the same buffer, and the mixture was incubated for 30 minutes at 37°C. The enzyme activity in each buffer was determined spectrophotometrically by UV at 415 nm. […] (b) pH stability. The stock enzyme solution was dialyzed against water to remove salts. The enzyme solution was adjusted to 0.6 u/10 µl with Tris-HCl buffer (pH 7.5). This solution (10 µl) was mixed with 40 µl each of the buffer listed in (a) and incubated for 30 minutes at 30°C. The enzyme sample (50 µl) was mixed with 100 µl of 500 mM Tris-HCl (pH 9.0) and 50 µl of substrate in water (1mg/ml), and the mixture was incubated at 37°C for 30 minutes to determine the residual enzyme activity. […] (c) Optimum temperature. Enzyme (0.6 u) in 150 µl of 50 mM Tris-HCl (pH 9.0) were incubated with p-nitrophenylsulfate (1 mg/ml, 50 µl) in the same buffer (pH 9.0) for 30 minutes at various temperatures (200 µl each). […] (d) Temperature stability. Enzyme preparations (0.6 u) in 50 mM Tris-HCl (150 µl, pH 9.0) were incubated for 15 minutes at various temperatures and then cooled in an ice bath. p-Nitrophenylsulfate (1 mg/ml, 50 µl) was added to the enzyme solution, and the mixture was incubated for 30 minutes at 37°C. […] (e) Effect of ions. Enzyme (0.6 u), p-nitrophenyl sulfate 4 mM, and ion 1 mM were dissolved in 200 µl of Tris-HCl (50 mM). The solution was incubated for 30 minutes at 37°C. p-Nitrophenol released was spectrophotometrically assayed by UV at 415 nm.
(f) Effect of enzyme inhibitors. The protocol used in (e) was followed with the exception that 1 mM of an enzyme inhibitor was used instead of a metal ion.

[2] = test system: sulfatase of the invention; assay: Substrate specificity: etoposide derivatives incubated with the enzyme, TLC analysis; type: biochemical, Streptomyces sp. T109-3; conditions: substrate 50 µl, 1 mg/ml; enzyme 0.6 u; 37°C for 30 minutes; silica gel TLC
Description: (h) Substrate specificity. Four etoposide derivatives were tested as substrate for the sulfatase of the invention. The substrates are: etoposide 4'-sulfate (III), 2",3"-di-O-acetyl-etoposide-4'-sulfate (IV), etoposide 2"-sulfate (V), and etoposide 3"-sulfate (VI). The substrate (50 µl, 1 mg/ml, MeOH:H2O = 1:1, pH 9.0) and the enzyme (50 µl, 0.6 u, 50 mM Tris-HCl, pH 7.5) were mixed and incubated at 37°C for 30 minutes. The mixture was then analyzed on a silica gel TLC plate using a solvent system consisting of chloroform-methanol (10:1 v/v).

[3] = background statement; compound disclosed in Japanese Kokai 88/192,793; cited from earlier work
Es-2 sulfatase [4] = assay: Effect of salts on sulfatase activity (protocol as for ions); type: biochemical, Streptomyces sp. T109-3; conditions: 5 mM of a salt; for % Inhibit.: p-nitrophenyl sulfate 4 mM, 30 minutes at 37°C
Description: (§1) (a) Optimum pH. The enzyme solution (0.6 u in 50 µl of 50 mM Tris-HCl, pH 7.5) was mixed with 100 µl each of the following buffers: 500 mM sodium acetate (pH 4.0-5.5), 500 mM Tris-maleate (pH 5.5-7.7), 500 mM Tris-HCl (pH 7.5-9.0), and 500 mM glycine-NaOH (pH 9.0-10.0). The substrate, p-nitrophenylsulfate, was similarly dissolved in each of the above buffers (1 mg/ml). A sample (150 µl) from the enzyme solution is mixed with the substrate (50 µl) in the same buffer, and the mixture was incubated for 30 minutes at 37°C. The enzyme activity in each buffer was determined spectrophotometrically by UV at 415 nm. The optimal pH of the enzyme was thus determined to be about 9.0 (Fig. 1A). (b) pH stability. The stock enzyme solution was dialyzed against water to remove salts. The enzyme solution was adjusted to 0.6 u/10 µl with Tris-HCl buffer (pH 7.5). This solution (10 µl) was mixed with 40 µl each of the buffer listed in (a) and incubated for 30 minutes at 30°C. The enzyme sample (50 µl) was mixed with 100 µl of 500 mM Tris-HCl (pH 9.0) and 50 µl of substrate in water (1mg/ml), and the mixture was incubated at 37°C for 30 minutes to determine the residual enzyme activity. […] (c) Optimum temperature. Enzyme (0.6 u) in 150 µl of 50 mM Tris-HCl (pH 9.0) were incubated with p-nitrophenylsulfate (1 mg/ml, 50 µl) in the same buffer (pH 9.0) for 30 minutes at various temperatures (200 µl each). […] (d) Temperature stability. Enzyme preparations (0.6 u) in 50 mM Tris-HCl (150 µl, pH 9.0) were incubated for 15 minutes at various temperatures and then cooled in an ice bath. p-Nitrophenylsulfate (1 mg/ml, 50 µl) was added to the enzyme solution, and the mixture was incubated for 30 minutes at 37°C. The enzyme was stable below 30°C at pH 9.0 (Fig. 2B). (e) Effect of ions. Enzyme (0.6 u), p-nitrophenyl sulfate 4 mM, and ion 1 mM were dissolved in 200 µl of Tris-HCl (50 mM). The solution was incubated for 30 minutes at 37°C. p-Nitrophenol released was spectrophotometrically assayed by UV at 415 nm. […]
(g) Effect of salts. The protocol used in (e) was followed, except that 5 mM of a salt was used instead of 1 mM of a metal ion. […]

Es-2 sulfatase [5] = assay: Effect of metal ions on sulfatase activity (p-nitrophenyl sulfate hydrolysis, UV at 415 nm); type: biochemical, Streptomyces sp. T109-3; conditions: ion 1 mM; enzyme 0.6 u; p-nitrophenyl sulfate 4 mM; Tris-HCl 50 mM; 30 minutes at 37°C
Description: Sulfatase activity during purification is monitored by determining the conversion of p-nitrophenylsulfate into p-nitrophenol using spectrophotometric means. Specifically, the following assay method is used. 50 µl of a p-nitrophenylsulfate solution (1 mg/ml in 50 mM Tris-HCl, pH7.5), 50 µl of a sample, and 100 µl of 50 mM Tris-HCl, pH 7.5, are mixed and incubated for 30 minutes at 37°C. If the activity is weak, the incubation time is prolonged up to 18 hours. The liberated p-nitrophenol is determined spectrophotometrically at 415 nm. From standard curves of p-nitrophenol and protein concentrations, the unit or specific activity per mg of the enzyme is calculated. The protein concentration is determined by measuring the absorption at 280 nm throughout purification and, in case of homogeneous protein, by the Bradford method [Bradford, M., et al., Anal. Biochem., 1976, 72:248-254] using bovine serum albumin as the standard protein. A unit of sulfatase activity is defined as the amount of enzyme which can hydrolyze one nanomole of p-nitrophenyl sulfate to p-nitrophenol in one minute at 37°C at pH 7.5.
as §1

Es-2 sulfatase [6] = assay: EDTA treatment of the enzyme and recovery of activity by Ca2+; type: biochemical, Streptomyces sp. T109-3; conditions: 10 mM of EDTA followed by dialysis against water
Description: (a) Optimum pH. The enzyme solution (0.6 u in 50 µl of 50 mM Tris-HCl, pH 7.5) was mixed with 100 µl each of the following buffers: 500 mM sodium acetate (pH 4.0-5.5), 500 mM Tris-maleate (pH 5.5-7.7), 500 mM Tris-HCl (pH 7.5-9.0), and 500 mM glycine-NaOH (pH 9.0-10.0). The substrate, p-nitrophenylsulfate, was similarly dissolved in each of the above buffers (1 mg/ml). A sample (150 µl) from the enzyme solution is mixed with the substrate (50 µl) in the same buffer, and the mixture was incubated for 30 minutes at 37°C. The enzyme activity in each buffer was determined spectrophotometrically by UV at 415 nm. The optimal pH of the enzyme was thus determined to be about 9.0 (Fig. 1A). (b) pH stability. The stock enzyme solution was dialyzed against water to remove salts. The enzyme solution was adjusted to 0.6 u/10 µl with Tris-HCl buffer (pH 7.5). This solution (10 µl) was mixed with 40 µl each of the buffer listed in (a) and incubated for 30 minutes at 30°C. The enzyme sample (50 µl) was mixed with 100 µl of 500 mM Tris-HCl (pH 9.0) and 50 µl of substrate in water (1mg/ml), and the mixture was incubated at 37°C for 30 minutes to determine the residual enzyme activity. […] (c) Optimum temperature. Enzyme (0.6 u) in 150 µl of 50 mM Tris-HCl (pH 9.0) were incubated with p-nitrophenylsulfate (1 mg/ml, 50 µl) in the same buffer (pH 9.0) for 30 minutes at various temperatures (200 µl each). […]

[7] = 1 mM of an enzyme inhibitor, p-nitrophenyl sulfate 4 mM, 30 minutes at 37°C

Compound | % Inhibit. (Es-2 sulfatase [1]; [7]) | Rel. Activity (%) (Es-2 sulfatase [5]) | Inhibit. (%) (Es-2 sulfatase [5]) | other results
O=C(O)c1cc[c]([Hg][Cl])cc1 [p-Chloromercuribenzoic acid] | 78% | – | – | –
COc1cc([C@@H]2c3cc4c(cc3[C@@H](O[C@@H]3O[C@@H]5CO[C@@H](C)O[C@H]5[C@H](O)[C@H]3O)[C@H]3COC(=O)[C@H]23)OCO4)cc(OC)c1OS(=O)(=O)O [(III), etoposide 4'-sulfate] | – | – | – | substrate for the enzyme [2]: are not; cytotoxicity relative to etoposide [3]: much less cytotoxic than etoposide itself
OCCS [2-Mercaptoethanol] | 22% | – | – | –
(NH4)2SO4 | – | – | – | % Inhibit. (Es-2 sulfatase [4]): 44%
O=C(O)CI [Iodoacetic acid] | – | – | – | % Inhibit. (Es-2 sulfatase [1]; 1000 µM): 96%
CCN1C(=O)C=CC1=O [N-Ethylmaleimide] | 35% | – | – | –
NaCl | – | – | – | % Inhibit. (Es-2 sulfatase [4]): 58%
CaCl2 | – | 213% | – | –
K2HPO4 | – | – | – | inhibition of sulfatase activity (in words) (Es-2 sulfatase [4]): strongly inhibited; % Inhibit. (Es-2 sulfatase [4]): 100%
FeCl2 | – | 12% | 88% | –
COc1cc([C@@H]2c3cc4c(cc3[C@@H](O[C@@H]3O[C@@H]5CO[C@@H](C)O[C@H]5[C@H](OC(C)=O)[C@H]3OC(C)=O)[C@H]3COC(=O)[C@H]23)OCO4)cc(OC)c1OS(=O)(=O)O [(IV), 2",3"-di-O-acetyl-etoposide-4'-sulfate] | – | – | – | substrate for the enzyme [2]: are not
O[C@H](CS)[C@H](O)CS (racemic) [Dithiothreitol] | 34% | – | – | –
CuCl2 | – | 56% | 44% | –
AlCl3 | – | 67% | 33% | –
ZnCl2 | – | 18% | 82% | –
NiCl2 | – | 59% | 41% | –
c1c[nH]cn1 [Imidazole] | 14% | – | – | –
BaCl2 | – | 83% | 17% | –
FeCl3 | – | 51% | 49% | –
[Cl][Hg][Cl] [HgCl2] | – | 0% | 100% | –
O=S(=O)(F)Cc1ccccc1 [Phenylmethanesulfonyl fluoride] | 81% | – | – | –
CoCl2 | – | 34% | 66% | –
N[C@@H](CS)C(=O)O [Cysteine] | 18% | – | – | –
O=C(O)CN(CCN(CC(=O)O)CC(=O)O)CC(=O)O [EDTA] | – | – | – | % Inhibit. (Es-2 sulfatase [1]; 1000 µM): 69%; sulfatase activity after treatment of the enzyme with EDTA (Es-2 sulfatase [6]): the sulfatase activity disappeared
O=C(O)CC(O)(CC(=O)O)C(=O)O [Citrate] | 87% | – | – | –
K2SO4 | – | – | – | % Inhibit. (Es-2 sulfatase [4]): 36%
MnCl2 | – | 34% | 66% | –
c1cnc2c(c1)ccc1cccnc12 [1,10-Phenanthroline] | 60% | – | – | –

— EP0423818B1, “Arylsulfatase” (Bristol-Myers Squibb Company, priority 1989, dated 1991)
